Organism: Rattus norvegicus
Assay: Open TG-GATES - Regimen: Single
Assay type: toxicity, organism-based, Sprague-Dawley
Design: regimen Single, gender Male, age 6 weeks
Details: in vivo, po, route gavage; for Hb / Ht / Lym / MCH / MCHC / MCV / Mono / Neu / PT / Plat / RBC / Ret / WBC / APTT / Bas / Eos / Fbg: tissue Blood; for KIDNEY_L / KIDNEY_R / KIDNEY_TOTAL: tissue Kidney; for LIVER: tissue Liver; for A/G / ALP / ALT / AST / BUN / CRE / Ca / Cl / DBIL / GLC / IP / K / LDH / Na / PL / RALB / TBIL / TC / TG / TP / gamma-GTP: tissue Plasma
[1] = 15 mg/kg, 6 h, dose level Middle
[2] = 15 mg/kg, 9 h, dose level Middle
[3] = 15 mg/kg, 24 h, dose level Middle

SMILES: COc1ccc2c(c1)c(CC(=O)O)c(C)n2C(=O)c1ccc(Cl)cc1 [INDOMETHACIN]
- Hb [1]: 14 g/dL
- Ht [1]: 38.4%
- Lym [1]: 71.4%
- MCH [1]: 22.9 pg
- MCHC [1]: 36.6%
- MCV [1]: 62.7 fL
- Mono [1]: 3.4%
- Neu [1]: 22.8%
- PT [1]: 12.2 s
- Plat [1]: 116.9 x10_4/uL
- RBC [1]: 613.2 x10_4/ul
- Ret [1]: 7.8%
- WBC [1]: 112.3 x10_2/uL
- KIDNEY_L [1]: 1 g
- KIDNEY_R [1]: 1 g
- KIDNEY_TOTAL [1]: 2 g
- LIVER [1]: 9.3 g
- A/G [1]: 1.6
- ALP [1]: 853.6 IU/L
- ALT [1]: 39.6 IU/L
- AST [1]: 70 IU/L
- BUN [1]: 12.8 mg/dL
- CRE [1]: 0.4 mg/dL
- Ca [1]: 10.5 mg/dL
- Cl [1]: 103.4 meq/L
- DBIL [1]: 0.074 mg/dL
- GLC [1]: 200.2 mg/dL
- IP [1]: 9.5 mg/dL
- K [1]: 4.1 meq/L
- LDH [1]: 204.8 IU/L
- Na [1]: 140.8 meq/L
- PL [1]: 135.6 mg/dL
- RALB [1]: 3.2 g/dL
- TBIL [1]: 0.1 mg/dL
- TC [1]: 74.4 mg/dL
- TG [1]: 66.6 mg/dL
- TP [1]: 5.3 g/dL
- gamma-GTP [1]: 1.2 IU/L
- TERMINAL_BW [2]: 220.7 g
- APTT [2]: 18 s
- Bas [2]: 0%
- Eos [2]: 0.4%
- Fbg [2]: 217.2 mg/dL
- Hb [2]: 13.6 g/dL
- Ht [2]: 37.1%
- Lym [2]: 69.4%
- MCH [2]: 22.4 pg
- MCHC [2]: 36.6%
- MCV [2]: 61.1 fL
- Mono [2]: 3.4%
- Neu [2]: 24.8%
- PT [2]: 12.5 s
- Plat [2]: 119.6 x10_4/uL
- RBC [2]: 607 x10_4/ul
- Ret [2]: 7.9%
- WBC [2]: 101.8 x10_2/uL
- KIDNEY_L [2]: 0.9 g
- KIDNEY_R [2]: 0.9 g
- KIDNEY_TOTAL [2]: 1.9 g
- LIVER [2]: 8.7 g
- A/G [2]: 1.6
- ALP [2]: 719.4 IU/L
- ALT [2]: 29.2 IU/L
- AST [2]: 63.8 IU/L
- BUN [2]: 13 mg/dL
- CRE [2]: 0.3 mg/dL
- Ca [2]: 10.4 mg/dL
- Cl [2]: 104.2 meq/L
- DBIL [2]: 0.07 mg/dL
- GLC [2]: 186.8 mg/dL
- IP [2]: 10 mg/dL
- K [2]: 4 meq/L
- LDH [2]: 202.2 IU/L
- Na [2]: 141.4 meq/L
- PL [2]: 125.4 mg/dL
- RALB [2]: 3.2 g/dL
- TBIL [2]: 0.1 mg/dL
- TC [2]: 69.6 mg/dL
- TG [2]: 36.8 mg/dL
- TP [2]: 5.2 g/dL
- gamma-GTP [2]: 1 IU/L
- TERMINAL_BW [3]: 227.1 g
- APTT [3]: 19.7 s
- Bas [3]: 0.2%
- Eos [3]: 0.8%
- Fbg [3]: 294.2 mg/dL
- Hb [3]: 10.8 g/dL
- Ht [3]: 31%
- Lym [3]: 57.8%
- MCH [3]: 21.3 pg
- MCHC [3]: 34.9%
- MCV [3]: 61.2 fL
- Mono [3]: 2.4%
- Neu [3]: 37.8%
- PT [3]: 12.2 s
- Plat [3]: 94.5 x10_4/uL
- RBC [3]: 509.2 x10_4/ul
- Ret [3]: 7.9%
- WBC [3]: 93.5 x10_2/uL
- KIDNEY_L [3]: 1 g
- KIDNEY_R [3]: 1 g
- KIDNEY_TOTAL [3]: 2.1 g
- LIVER [3]: 9.5 g
- A/G [3]: 1.3
- ALP [3]: 547.6 IU/L
- ALT [3]: 28 IU/L
- AST [3]: 57 IU/L
- BUN [3]: 14.4 mg/dL
- CRE [3]: 0.4 mg/dL
- Ca [3]: 9.8 mg/dL
- Cl [3]: 105.4 meq/L
- DBIL [3]: 0.06 mg/dL
- GLC [3]: 173.2 mg/dL
- IP [3]: 9.6 mg/dL
- K [3]: 4.2 meq/L
- LDH [3]: 180.2 IU/L
- Na [3]: 141.2 meq/L
- PL [3]: 127 mg/dL
- RALB [3]: 2.5 g/dL
- TBIL [3]: 0.1 mg/dL
- TC [3]: 72.8 mg/dL
- TG [3]: 80.8 mg/dL
- TP [3]: 4.3 g/dL
- gamma-GTP [3]: 1.4 IU/L
- TERMINAL_BW (50 mg/kg, 3 h, dose level High): 226 g
- APTT (50 mg/kg, 3 h, dose level High): 21.4 s
- Bas (50 mg/kg, 3 h, dose level High): 0.2%
- Eos (50 mg/kg, 3 h, dose level High): 1%
- Fbg (50 mg/kg, 3 h, dose level High): 216.6 mg/dL
- Hb (50 mg/kg, 3 h, dose level High): 13.8 g/dL
- Ht (50 mg/kg, 3 h, dose level High): 37.8%
- Lym (50 mg/kg, 3 h, dose level High): 73.6%
- MCH (50 mg/kg, 3 h, dose level High): 22.2 pg
- MCHC (50 mg/kg, 3 h, dose level High): 36.4%
- MCV (50 mg/kg, 3 h, dose level High): 60.9 fL
- Mono (50 mg/kg, 3 h, dose level High): 2.4%
- Neu (50 mg/kg, 3 h, dose level High): 22%
- PT (50 mg/kg, 3 h, dose level High): 12 s
- Plat (50 mg/kg, 3 h, dose level High): 119.2 x10_4/uL
- RBC (50 mg/kg, 3 h, dose level High): 621.6 x10_4/ul
- Ret (50 mg/kg, 3 h, dose level High): 8.1%
- WBC (50 mg/kg, 3 h, dose level High): 114.1 x10_2/uL
- KIDNEY_L (50 mg/kg, 3 h, dose level High): 0.9 g
- KIDNEY_R (50 mg/kg, 3 h, dose level High): 0.9 g
- KIDNEY_TOTAL (50 mg/kg, 3 h, dose level High): 1.9 g
- LIVER (50 mg/kg, 3 h, dose level High): 9.8 g
- A/G (50 mg/kg, 3 h, dose level High): 1.6
- ALP (50 mg/kg, 3 h, dose level High): 971 IU/L

From ChEMBL document CHEMBL3885861, “Open TG-GATES”
